Results: patent publication US20240382629A1, “HETEROBIVALENT AND HOMOBIVALENT AGENTS TARGETING FIBROBLAST ACTIVATION PROTEIN ALPHA AND/OR PROSTATE-SPECIFIC MEMBRANE ANTIGEN” (The Johns Hopkins University, priority 2021, published 2024)

Legend:
[1] = Stability of radiotracer in PBS and bovine serum albumin; type: physicochemical; conditions: in PBS and bovine serum albumin at 37° C.
Method: Click chemistry was used to conjugate the FAP and PSMA targeting moieties with the selected linker. Radiolabeling employed a rapid microwave-assisted method to generate ^64Cu-FP-L1 in nearly quantitative yield. High-performance liquid chromatography (HPLC) was used to remove unreacted ligand to ensure high specific radioactivity (>19 MBq/nmol). ^64Cu-FP-L1 was stable for at least 4 h in PBS and bovine serum albumin at 37° C.

U87 tumor = test: PET imaging and tissue biodistribution in U87 tumor-bearing mice; type: in vivo, mouse
Method: (§1) Cell uptake assays, flow cytometry, and IHC were performed as described previously. Banerjee et al., 2019; Nimmagadda et al., 2018. PET imaging and biodistribution Sequential PET imaging and biodistribution studies were conducted to quantify and validate PET imaging data. Briefly, tumor-bearing mice were administrated approximately 7.4 MBq of radiotracer in 150 μL saline via tail-vein injection. They were randomized into the indicated groups of 3-4 mice before radiotracer injection.
In Experiment 1, bilateral xenografts of U87 (right flank) and PSMA+ PC3 PIP (left flank) tumors were established in male NSG mice (n=3), which underwent imaging followed by biodistribution over 24 h. […] A biodistribution study was further conducted with U87 tumors at 2 h post-injection (n=3) to compare the tissue distribution properties of ^64Cu-FP-L1 and ^64Cu-FAPI-04.

PSMA+ PC3 PIP tumor = test: PET imaging and biodistribution in PSMA+ PC3 PIP tumor-bearing mice; type: in vivo, mouse
Method: as §1, with “Banerjee et al., 2019; Nimmagadda et al., 2018.” left out

PSMA+ 786-O tumor = test: PET imaging and biodistribution in PSMA+ 786-O ccRCC tumor-bearing mice; type: in vivo, mouse; conditions: 2 h
Method: Experiment 4 consisted of preliminary imaging (7.4 MBq) (n=2) and biodistribution studies (0.74 MBq) at 2 h in male NSG healthy mice (n=3) and tumor-bearing human clear cell renal cell carcinoma (ccRCC) PSMA+786-O tumors (n=4).

[2] = 1 h, NSG mice, U87 tumor, n=3-4, in %ID/g
[3] = 1 h block, 10 nmol FAPI-04, NSG mice, U87 tumor, in %ID/g
[4] = 2 h (n = 4), NSG mice, U87 tumor, in %ID/g
[5] = 2 h, blocking with FAPI-04 (500 nmol/kg)
[6] = 2 h Nude mice (n = 4), in %ID/g
[7] = 4 h, NSG mice, U87 tumor, in %ID/g
[8] = 24 h, NSG mice, U87 tumor, in %ID/g
[9] = U87 in NSG mice, 20 μCi, n=3, G2/G3 and FAPI-04, in %ID/g
[10] = male NSG mice bearing U87 xenografts, 2 h, n=3-4
[11] = blocking with ZJ43 (500 nmol/kg)

## N#C[C@@H]1CCCN1C(=O)CNC(=O)c1ccnc2ccc(OCCCNC(=O)CCc3cn(CCOCCOCCOCCC(=O)N[C@@H](CCCCNC(=O)CN4CCN(CC(=O)O)CCN(CC(=O)O)CC4)C(=O)NCCCCC(=O)N(CCCC[C@H](NC(=O)N[C@@H](CCC(=O)O)C(=O)O)C(=O)O)Cc4ccc(Br)cc4)nn3)cc12 [^64Cu-FP-L1, metal not drawn]
[1]
  Stability (stable for at least): at least 4 h
U87 tumor; [2]
  Biodistribution: Bladder: 2.41 ± 0.62
  Biodistribution: Blood: 10.12 ± 3.23
  Biodistribution: Bone: 4.17 ± 0.13
  Biodistribution: Fat: 0.77 ± 0.12
  Biodistribution: Heart: 3.42 ± 2.73
  Biodistribution: Kidney: 21.58 ± 5.33
  Biodistribution: Lac.gl: 5.47 ± 4.13
  Biodistribution: Liver: 5.35 ± 0.43
  Biodistribution: Lung: 5.32 ± 1.42
  Biodistribution: Muscle: 2.29 ± 0.08
  Biodistribution: Pancreas: 7.17 ± 1.19
  Biodistribution: Sal.gl: 12.01 ± 3.62
  Biodistribution: Sm.in: 4.22 ± 1.78
  Biodistribution: Spleen: 2.20 ± 0.54
  Biodistribution: Stomach: 2.51 ± 0.25
  Biodistribution: Tumor: 12.04 ± 2.39
U87 tumor; [3]
  Biodistribution: Bladder: 1.22 ± 0.15
  Biodistribution: Blood: 1.38 ± 0.19
  Biodistribution: Bone: 0.72 ± 0.08
  Biodistribution: Fat: 0.31 ± 0.04
  Biodistribution: Heart: 0.94 ± 0.35
  Biodistribution: Kidney: 6.09 ± 0.18
  Biodistribution: Lac.gl: 1.48 ± 0.45
  Biodistribution: Liver: 6.19 ± 1.06
  Biodistribution: Lung: 2.63 ± 0.27
  Biodistribution: Muscle: 0.38 ± 0.05
  Biodistribution: Pancreas: 1.01 ± 0.10
  Biodistribution: Sal.gl: 2.00 ± 0.19
  Biodistribution: Sm.in: 3.00 ± 0.22
  Biodistribution: Spleen: 1.55 ± 0.07
  Biodistribution: Stomach: 1.96 ± 0.07
  Biodistribution: Tumor: 4.37 ± 0.70
U87 tumor; [4]
  Biodistribution: Bladder: 2.68 ± 0.83
  Biodistribution: Blood: 9.93 ± 2.13
  Biodistribution: Bone: 5.36 ± 1.89
  Biodistribution: Fat: 0.66 ± 0.52
  Biodistribution: Heart: 4.62 ± 0.68
  Biodistribution: Kidney: 26.85 ± 7.39
  Biodistribution: Lac.gl: 8.11 ± 1.24
  Biodistribution: Liver: 6.15 ± 0.65
  Biodistribution: Lung: 5.65 ± 1.54
  Biodistribution: Muscle: 2.10 ± 0.13
  Biodistribution: Pancreas: 5.98 ± 0.58
  Biodistribution: Sal.gl: 8.96 ± 1.47
  Biodistribution: Sm.in: 6.12 ± 1.91
  Biodistribution: Spleen: 2.68 ± 0.62
  Biodistribution: Stomach: 2.19 ± 0.33
  Biodistribution: Tumor: 14.65 ± 3.68
U87 tumor; 2 h, bilateral U87 / PSMA+ PC3 PIP model
  Tumor uptake, FAP+ U87 tumor: 16.96±5.01 % ID/g
U87 tumor; [5]
  Uptake in U87 tumor with FAP blockade: 2.47±0.82 % ID/g
U87 tumor; [6]
  Biodistribution: Bladder: 1.80 ± 0.24
  Biodistribution: Blood: 6.50 ± 1.05
  Biodistribution: Bone: 3.51 ± 0.45
  Biodistribution: Fat: 0.86 ± 0.03
  Biodistribution: Heart: 2.77 ± 0.25
  Biodistribution: Kidney: 11.66 ± 0.95
  Biodistribution: Lac.gl: 5.44 ± 0.78
  Biodistribution: Liver: 4.16 ± 0.66
  Biodistribution: Lung: 4.37 ± 0.48
  Biodistribution: Muscle: 1.80 ± 0.26
  Biodistribution: Pancreas: 5.04 ± 0.36
  Biodistribution: Sal.gl: 5.60 ± 0.94
  Biodistribution: Sm.in: 4.33 ± 1.13
  Biodistribution: Spleen: 1.88 ± 0.35
  Biodistribution: Stomach: 2.02 ± 0.22
  Biodistribution: Tumor: 7.25 ± 1.24
U87 tumor; [7]
  Biodistribution: Bladder: 1.72 ± 0.33
  Biodistribution: Blood: 3.91 ± 0.73
  Biodistribution: Bone: 2.39 ± 0.37
  Biodistribution: Fat: 0.53 ± 0.10
  Biodistribution: Heart: 2.13 ± 0.17
  Biodistribution: Kidney: 16.57 ± 2.68
  Biodistribution: Lac.gl: 3.72 ± 0.72
  Biodistribution: Liver: 5.52 ± 0.39
  Biodistribution: Lung: 3.31 ± 0.26
  Biodistribution: Muscle: 1.08 ± 0.10
  Biodistribution: Pancreas: 3.19 ± 0.11
  Biodistribution: Sal.gl: 4.80 ± 0.82
  Biodistribution: Sm.in: 4.26 ± 0.33
  Biodistribution: Spleen: 2.05 ± 0.13
  Biodistribution: Stomach: 2.02 ± 0.30
  Biodistribution: Tumor: 13.81 ± 1.78
U87 tumor; 4 h, bilateral U87 / PSMA+ PC3 PIP model
  Tumor uptake, FAP+ U87 tumor: 19.05±5.89 % ID/g
U87 tumor; [8]
  Biodistribution: Bladder: 0.57 ± 0.13
  Biodistribution: Blood: 0.91 ± 0.23
  Biodistribution: Bone: 0.48 ± 0.08
  Biodistribution: Fat: 0.23 ± 0.10
  Biodistribution: Heart: 1.19 ± 0.34
  Biodistribution: Kidney: 2.45 ± 0.32
  Biodistribution: Lac.gl: 0.87 ± 0.14
  Biodistribution: Liver: 4.21 ± 1.00
  Biodistribution: Lung: 2.07 ± 0.40
  Biodistribution: Muscle: 0.23 ± 0.04
  Biodistribution: Pancreas: 0.72 ± 0.15
  Biodistribution: Sal.gl: 0.92 ± 0.14
  Biodistribution: Sm.in: 2.16 ± 0.29
  Biodistribution: Spleen: 1.67 ± 0.32
  Biodistribution: Stomach: 1.27 ± 0.14
  Biodistribution: Tumor: 3.25 ± 0.05
U87 tumor; 24 h, bilateral U87 / PSMA+ PC3 PIP model
  Tumor uptake, FAP+ U87 tumor: 4.31±0.75 % ID/g
U87 tumor; [9]
  Biodistribution: Bladder: 6.81 ± 3.65
  Biodistribution: Blood: 2.29 ± 0.17
  Biodistribution: Bone: 3.32 ± 0.74
  Biodistribution: Fat: 1.03 ± 0.39
  Biodistribution: Heart: 1.58 ± 0.17
  Biodistribution: Kidney: 9.05 ± 0.88
  Biodistribution: Lacrimal: 3.32 ± 0.36
  Biodistribution: Liver: 4.27 ± 0.53
  Biodistribution: Lung: 2.71 ± 0.40
  Biodistribution: Muscle: 1.52 ± 0.20
  Biodistribution: Pancreas: 1.02 ± 0.72
  Biodistribution: Salivary: 4.64 ± 0.26
  Biodistribution: Sm. Intest.: 3.01 ± 0.08
  Biodistribution: Spleen: 1.83 ± 0.14
  Biodistribution: Stomach: 2.17 ± 0.12
  Biodistribution: U87: 7.79 ± 1.12
U87 tumor; bilateral U87 / PSMA+ PC3 PIP model
  Bone uptake: > 1 % ID/g
U87 tumor; [10]
  Biodistribution: Bladder: 6.16 ± 4.37 % ID/g
  Biodistribution: Blood: 1.87 ± 0.24 % ID/g
  Biodistribution: Bone: 2.02 ± 0.79 % ID/g
  Biodistribution: Fat: 0.35 ± 0.20 % ID/g
  Biodistribution: Heart: 1.36 ± 0.28 % ID/g
  Biodistribution: Kidney: 7.26 ± 2.83 % ID/g
  Biodistribution: Lacrimal glands: 4.74 ± 1.57 % ID/g
  Biodistribution: Liver: 4.05 ± 0.53 % ID/g
  Biodistribution: Lung: 2.80 ± 0.68 % ID/g
  Biodistribution: Muscle: 1.11 ± 0.23 % ID/g
  Biodistribution: Pancreas: 0.99 ± 0.18 % ID/g
  Biodistribution: Salivary Glands: 3.10 ± 0.51 % ID/g
  Biodistribution: Sm. Intestine: 2.32 ± 0.79 % ID/g
  Biodistribution: Spleen: 1.39 ± 0.10 % ID/g
  Biodistribution: Stomach: 1.89 ± 0.10 % ID/g
  Biodistribution: U87: 10.83 ± 1.02 % ID/g
PSMA+ PC3 PIP tumor; 2 h
  Uptake in PSMA+ PC3 PIP tumor: 12.06±0.78 % ID/g
PSMA+ PC3 PIP tumor; [5]
  Uptake in PSMA+ PC3 PIP tumors with FAP blockade: 18.56±2.02 % ID/g
PSMA+ PC3 PIP tumor; 4 h
  Uptake in PSMA+ PC3 PIP tumor: 18.89±3.95 % ID/g
PSMA+ PC3 PIP tumor; 24 h
  Uptake in PSMA+ PC3 PIP tumor: 10.51±1.82 % ID/g
PSMA+ PC3 PIP tumor; ZJ43 (500 nmol/kg)
  Fold lower kidney uptake with ZJ43 vs unblocked: > 2 fold
PSMA+ PC3 PIP tumor; [11]
  Kidney uptake with PSMA blockade: 2.97±0.23 % ID/g
  Uptake in PSMA+ PIP tumor with PSMA blockade: 7.48±0.5 % ID/g
PSMA+ PC3 PIP tumor; from 1 to 24 h post-injection
  Tumor uptake and retention in PSMA+PC3 PIP tumor: > 10 % injected dose per gram of tissue
PSMA+ PC3 PIP tumor; unblocked
  Kidney uptake, unblocked agent: 8.03±0.89 % ID/g
PSMA+ 786-O tumor
  Tumor uptake, PSMA+ 786-O: 11.97±1.63 % ID/g
PSMA+ 786-O tumor; head-to-head biodistribution
  Renal uptake in PSMA+ 786-O xenograft-bearing NSG mice vs healthy NSG mice: high renal uptake compared to healthy mice
